Measurements reported in PMC9266917, “New Peptide Functionalized Nanostructured Lipid Carriers with CNS Drugs and Evaluation Anti-proliferative Activity” (International Journal of Molecular Sciences, 2022).

Assays:
[1] = preliminary solubility studies; drug added with stirring until saturation of the lipid; Compritol 888 ATO (melted, 80 °C), Transcutol HP and Miglyol (room temperature); n = 3
Method: Increasing amounts of TCP were successively added, with stirring, until saturation of the lipid was achieved. The saturation point occurred when the excess of solid TCP persisted for more than 8 h. Each determination was carried out in triplicate (n = 3).

Caco-2 cell line [2] = experiment: MTT cell viability assay, Caco-2; type: cell-based; settings: Caco-2, 24 h incubation, free peptide or conjugate at 10 µM, n = 3 or 6
Method: The MTT assay was conducted to determine metabolic activity of cells and assess cellular viability. Cells were maintained in culture incubated with DMEM further supplemented with 10% of heat-inactivated fetal bovine serum (FBS) and 1% penicillin and streptomycin at 37 °C in a controlled atmosphere of 5% CO2 (according to the ATCC recommendations). Before the experiment, SH-SY5Y cells and Caco-2 cell line were seeded in sterile, flat-bottom 96-well plates at the density of 18,000 cells per well and 6000 cells per well, respectively, and incubated for 24 h. […] Then the cells were incubated for 24 h and both negative and positive control were included with incubation with culture media and sterilized water (5:1) and DMSO 10% to promote the cell lyses, respectively. After incubation, all media was aspirated and replaced with 100 μL of MTT solution (at 0.5 mg/mL). Then, cells were incubated for 3 h in the dark. […] The absorbance was measured at 570 nm in a microplate reader (Synergy HT, Biotech Instruments inc., Winoosk, USA and Tecan Infinite M200, Tecan group Ltd., Männedorf, Switzerland). All experiments were performed in triplicates and the relative cell viability (%) was compared to control cells and calculated using the following equation: Cell viability (% of sample)=Abs sample/Abs control×100

Caco-2 cell line [3] = experiment: Cell morphology visualization by microscope, Caco-2; type: cell-based; settings: Caco-2, 24 h incubation, 10 µM
Method: (§1) After the treatments, cell morphology and growth were assessed by contrast phase microscope Lionheart FX (Biotech, USA) with use of Gen5 software (Biotech, USA) and a Leica DMI 6000B microscope equipped with a Leica DFC350 FX camera and then analyzed with the Leica LAS X imaging software (v3.7.4).

SH-SY5Y cell line = experiment: Cell morphology visualization by microscope, SH-SY5Y; type: cell-based, human; settings: 24 h incubation, 1 µM
Method: as §1

Molecule | solubility in lipids [1] | decrease of cell viability (Caco-2 cell line [2]) [%] | cell viability and morphology by microscope visualization (Caco-2 cell line [3]) | cell viability and morphology by microscope visualization (SH-SY5Y cell line)
N[C@@H]1C[C@H]1c1ccccc1 (racemic) [TCP, (±)-trans-2-Phenylcyclopropylamine] | maximum solubility level in liquid lipid Transcutol HP |  |  | 
KLALKLALKALKAALKLA-NH2 [MAP, model amphipathic peptide, cell-penetrating peptide] |  | 20 | decrease of cell viability and substantial morphologic changes | decreased substantial cell viability and showed some morphologic change with loss of normal cellular structure and round aspect
